Assays:
Experiment in all cases: CTG-3D luminescence at 96 h relative to day-0 seeding control (ratio to day 0); higher = more growth / less cytotoxicity; PDxO 3D drug screen, 96 h, CTG-3D normalised to day-0 seeding control.
HCI-016 = test system: HCI-016 (organoid from a triple-negative breast cancer xenograft)
HCI-019 = test system: HCI-019 (organoid from a triple-negative breast cancer xenograft)
HCI-008 = test system: HCI-008 (organoid from a HER2-enriched breast cancer xenograft)
HCI-010 = test system: HCI-010 (organoid from a breast cancer xenograft)
HCI-025 = test system: HCI-025 (organoid from a breast cancer xenograft)
HCI-027 = test system: HCI-027 (organoid from a triple-negative breast cancer xenograft)

CC(C)(C(=O)NCC(F)(F)C(F)(F)F)C(=O)N[C@@H]1C(=O)Nc2ccccc2-c2ccccc21
CTG-3D luminescence at 96 h
Details	12.5 pM	0.00025 µM	0.005 µM	0.1 µM	1 µM	10 µM	100 µM	625 fM
HCI-008, days in culture: 228	1.74	1.41	1	1.3	1.17	1.68	1.05	1.81
HCI-008, days in culture: 244	1.18	1.67	1.24	1.59	1.45	1.45	0.931	2.05
HCI-010, days in culture: 52	2.08	1.91	2.38	2.13	1.86	1.9	1.24	2.2
HCI-010, days in culture: 65	1.59	1.67	1.85	1.82	1.7	1.58	0.419	1.79
HCI-010, days in culture: 103	2.86	2.96	2.93	2.95	2.98	2.72	2.02	3.05
HCI-016, days in culture: 153	2.8	1.65	2.24	1.56	1.82	1.88	0.801	2.19
HCI-016, days in culture: 172	2.46	1.82	1.92	1.28	1.18	1.37	0.772	1.91
HCI-016, days in culture: 190	1.8	1.23	1.17	1.04	1.47	1.46	0.817	1.22
HCI-016, days in culture: 199	1.59	1.04	1.35	1.51	1.42	1.67	0.796	1.63
HCI-019, days in culture: 110	1.83	1.52	1.54	2.23	1.47	2.09	1.37	1.84
HCI-019, days in culture: 131	2.53	3.17	3.05	3.09	2.31	3.61	2.28	4.34
HCI-019, days in culture: 152	3.04	2.87	3.36	1.92	2.19	2.41	1.12	1.98
HCI-025, days in culture: 172	2.02	2.24	3.81	2.44	2.2	2.06	0.839	2.75
HCI-025, days in culture: 209	1.5	1.73	1.93	1.61	1.83	2.01	0.831	1.47
HCI-025, days in culture: 218	2.02	1.91	1.95	1.42	1.45	2.15	1.22	2.19
HCI-027, days in culture: 176	2.35	1.45	1.79	0.289	0.192	0.176	0.165	1.96
HCI-027, days in culture: 194	1.64	1.41	1.38	0.35	0.281	0.486	0.484	1.55
HCI-027, days in culture: 201	2.24	1.62	1.57	0.358	0.288	0.407	0.247	1.99
